Source: PMC5620987 (ACS Central Science, 2017)
Read-outs that look alike come from different tables or passages of the source.

Legend:
[1] = target: HDAC6 (Rattus norvegicus, UniProt A0A8I6GM68); test: Autoradiography with [18F]Bavarostat on rat brain slices; type: binding, Sprague–Dawley rat; conditions: sagittal rat brain slices; 10 μM per Figure 4 legend (100 μM per method)
[2] = test system: α-tubulin-ac; type: cell-based; conditions: 6 h, human iPSC-derived NPCs, Western blot
[3] = test system: H3K9ac; type: cell-based; conditions: 6 h, human iPSC-derived NPCs, Western blot
[4] = test system: H4K12ac; type: cell-based; conditions: 6 h, human iPSC-derived NPCs, Western blot

Sequence of HDAC6 (A0A8I6GM68 whole entry): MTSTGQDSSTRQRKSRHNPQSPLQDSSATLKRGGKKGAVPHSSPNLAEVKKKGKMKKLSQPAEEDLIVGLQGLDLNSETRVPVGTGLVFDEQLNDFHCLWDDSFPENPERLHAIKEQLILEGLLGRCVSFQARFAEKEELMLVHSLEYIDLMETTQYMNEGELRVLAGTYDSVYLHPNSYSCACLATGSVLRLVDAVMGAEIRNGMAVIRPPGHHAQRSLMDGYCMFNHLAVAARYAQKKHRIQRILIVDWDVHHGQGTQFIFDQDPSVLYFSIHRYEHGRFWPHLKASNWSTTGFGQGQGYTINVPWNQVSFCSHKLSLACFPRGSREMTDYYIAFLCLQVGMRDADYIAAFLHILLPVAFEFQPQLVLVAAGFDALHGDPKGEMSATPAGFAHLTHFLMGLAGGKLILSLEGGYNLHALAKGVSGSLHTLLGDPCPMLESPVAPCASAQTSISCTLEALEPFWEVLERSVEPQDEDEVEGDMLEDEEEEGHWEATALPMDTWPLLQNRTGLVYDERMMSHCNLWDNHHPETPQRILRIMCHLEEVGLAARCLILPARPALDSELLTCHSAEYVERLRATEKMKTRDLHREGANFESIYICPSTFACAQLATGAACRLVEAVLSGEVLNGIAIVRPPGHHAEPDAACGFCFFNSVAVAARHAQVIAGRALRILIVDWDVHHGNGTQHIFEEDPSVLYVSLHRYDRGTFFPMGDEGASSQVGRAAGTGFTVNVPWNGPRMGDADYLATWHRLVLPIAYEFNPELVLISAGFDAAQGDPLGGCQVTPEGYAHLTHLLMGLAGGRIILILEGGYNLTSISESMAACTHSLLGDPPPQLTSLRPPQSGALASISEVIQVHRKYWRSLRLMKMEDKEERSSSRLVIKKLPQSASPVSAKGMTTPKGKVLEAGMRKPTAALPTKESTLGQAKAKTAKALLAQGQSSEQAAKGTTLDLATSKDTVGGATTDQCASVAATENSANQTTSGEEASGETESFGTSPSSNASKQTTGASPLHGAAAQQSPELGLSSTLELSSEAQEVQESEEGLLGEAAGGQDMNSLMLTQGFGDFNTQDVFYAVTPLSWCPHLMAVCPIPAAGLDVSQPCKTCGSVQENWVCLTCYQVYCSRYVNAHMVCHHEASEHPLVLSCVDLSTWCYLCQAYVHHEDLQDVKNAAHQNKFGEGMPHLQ

Compound	Reduction of bound [18F]Bavarostat radioactivity [1]	α-tubulin acetylation level (α-tubulin-ac) vs DMSO ([2]; 10 μM)	H3K9ac level vs DMSO ([3]; 5 μM)	α-tubulin acetylation level (α-tubulin-ac) vs DMSO ([2]; 5 μM)	H4K12ac level vs DMSO ([4]; 5 μM)	H3K9ac level vs DMSO ([3]; 10 μM)	H4K12ac level vs DMSO ([4]; 10 μM)
CN1CCc2c(c3ccccc3n2Cc2ccc(C(=O)NO)cc2)C1 [Tubastatin A]	comparable level as Bavarostat	significantly increased					
O=C(CCCCCCNC(=O)c1cnc(N(c2ccccc2)c2ccccc2)nc1)NO [ACY-1215]			increased	effectively increased	increased		
CC(=O)Nc1ccc(C(=O)Nc2ccccc2N)cc1 [CI-994]		not α-tubulin-ac				significant increase	significant increase
